The text below walks through data of US20050282707A1, “Pyridinylisoxazoles and their use as herbicides” (Bayer CropScience GmbH, priority 2004, published 2005).

What all share (format): in vivo
One series concerns Sinapis arvensis. The series is described as follows: Pre-emergence herbicidal action. Particulars: 320 g of active ingredient or less per hectare, greenhouse, visual scoring after 3 to 4 weeks vs untreated controls. An excerpt: (§1) Seeds of mono- and dicotyledonous weed plants are placed in sandy loam in cardboard pots and covered with soil. The compounds according to the invention, formulated as wettable powders or emulsifiable concentrates, are then applied, in the form of an aqueous suspension or emulsion, at a dosage of 320 g of active ingredient or less per hectare (converted), onto the surface of the covering earth, at an application rate of 600 to 800 l of water per ha (converted). Following treatment, the pots are placed in the greenhouse and maintained under good growth conditions for the weed plants. The visual scoring of the plant damage or emergence damage is made when the test plants have emerged, after an experimental period of 3 to 4 weeks, in comparison to untreated controls.

A further series deals with Setaria viridis. Nature of the series: Pre-emergence herbicidal action. Particulars: 320 g of active ingredient or less per hectare, greenhouse, visual scoring after 3 to 4 weeks vs untreated controls.
Source text: as §1

A further series has as its system Amaranthus retroflexus. Nature of the series: Pre-emergence herbicidal action. Particulars: 320 g of active ingredient or less per hectare, greenhouse, visual scoring after 3 to 4 weeks vs untreated controls.
Source text: as §1

In the next series the test system is wheat plants. Nature of the series: Crop plant tolerance. Particulars: application rate of 320 g, plants with two to three true leaves, greenhouse, visual scoring four to five weeks after application.
Source text: as §1
(§2) In further greenhouse experiments, seeds of crop plants and of monocotyledonous and dicotyledonous weed plants are placed in sandy loam, covered with soil and placed in the greenhouse until the plants have developed two to three true leaves. Then they are treated with the compounds of the formula (I) according to the invention, and compared with those disclosed in the prior art, as described above in section 1. Four to five weeks after the application and after having been left to stand in the greenhouse, visual scoring is performed. In this test, for example, the compounds of Nos: 1.44, 2.39 and 3.44, at an application rate of 320 g, lead to no damage to maize and wheat plants.

A further series concerns maize plants. The series is described as follows: Crop plant tolerance. Particulars: application rate of 320 g, plants with two to three true leaves, greenhouse, visual scoring four to five weeks after application.
Source text: as §1, §2

For the compound `CCS(=O)(=O)c1ccc(C(=O)c2cnoc2C2CC2)c(C)n1` [1.19], in the series on Sinapis arvensis, the “activity against Sinapis arvensis” value was 100%. In addition, the “activity against Setaria viridis” value in the series on Setaria viridis was 100%. Besides, the “activity against Amaranthus retroflexus” value with Amaranthus retroflexus was found to be 100%.
For `Cc1nc(C(F)(F)F)ccc1C(=O)C(C#N)C(=O)C1CC1` (stereo not shown) [3.44], the “damage to wheat plants” value in the series with wheat plants is listed as “no damage”. Further, the “damage to maize plants” value with maize plants was “no damage”. The “activity against Sinapis arvensis” value in the series with Sinapis arvensis amounted to 100%. In addition, in the series on Setaria viridis, the “activity against Setaria viridis” value came to 100%. In addition, the “activity against Amaranthus retroflexus” value in the series with Amaranthus retroflexus worked out at 100%.
Take `CSc1ccc(-c2oncc2C(=O)C2CC2)c(C)n1` [2.14]: the “activity against Sinapis arvensis” value in the series with Sinapis arvensis amounted to 100%. Further, in the series on Setaria viridis, the “activity against Setaria viridis” value came out at 100%. In addition, the “activity against Amaranthus retroflexus” value in the series on Amaranthus retroflexus turned out to be 100%.
`Cc1nc(Cl)ccc1C(=O)c1cnoc1C1CC1` [1.39]: the “activity against Sinapis arvensis” value in the series with Sinapis arvensis is reported as 100%. Besides, the “activity against Setaria viridis” value in the series on Setaria viridis came to 100%. Besides, the “activity against Amaranthus retroflexus” value in the series on Amaranthus retroflexus worked out at 100%.
With `Cc1nc(Cl)ccc1-c1oncc1C(=O)C1CC1` [2.39], the “damage to wheat plants” value with wheat plants was “no damage”. The “damage to maize plants” value with maize plants is on record as “no damage”. Also, the “activity against Sinapis arvensis” value in the series with Sinapis arvensis turned out to be 100%. For the same compound, the “activity against Setaria viridis” value with Setaria viridis is 100%. Further, the “activity against Amaranthus retroflexus” value in the series on Amaranthus retroflexus is on record as 100%.
Regarding `CCS(=O)(=O)c1ccc(-c2oncc2C(=O)C2CC2)c(C)n1` [2.19], in the series with Sinapis arvensis, the “activity against Sinapis arvensis” value is listed as 100%. The “activity against Setaria viridis” value in the series on Setaria viridis was determined as 100%. Moreover, the “activity against Amaranthus retroflexus” value in the series with Amaranthus retroflexus is 100%.
